Source: patent US3950513A, “Process of stabilizing therapeutically useful plasmin solutions” (Novo Terapeutisk Laboratorium A/S, priority 1969, dated 1976)
“Also recorded” adds a separate entry of the source. Like-named read-outs stand apart in the source and are kept apart here. Where a SMILES comes first, the peptide text is derived from it.

Key:
[1] = target: T1, plasmin originating from swine blood (Sus scrofa, UniProt P06867); assay: Stabilizing effect of amino acids on plasmin solution, residual plasmin activity (casein) on storage; type: biochemical; conditions: 35.5°C, employed concentration 0.25 millimole per plasmin unit
T1 construct: from tissue; host or cells: swine blood
Protocol: (§1) Usually the activity of plasmin solutions is expressed in the number of plasmin units per milliliter. However, no definition of a plasmin unit has until now been internationally adopted. Here and in the following one plasmin unit means the amount of plasmin causing in 20 minutes the formation of decomposition products being soluble in perchloric acid and having an extinction of 1 unit at 275 mμ under the following experimental conditions:
(§2) By the addition of the perchloric acid a precipitation takes place, and the two test tubes now stand for 20 minutes whereafter filtration two times through filtering paper (J. H. Munktells unrivalled Genuine Swedish Filtering Paper No. 0.9 cm) is carried out. The extinction of the two solutions is thereafter measured at 275 mμ in a Beckman D U Spectrophotometer (1 cm quartz cuvette), the value of the sample having stood for 2 minutes being used as blind value.
If not, a saturated amino acid solution is employed.

[2] = target: T2, plasmin solution from swine blood (Sus scrofa, UniProt P06867); assay: Plasmin activity at high amino acid concentration and after dilution (reversible inactivation); type: biochemical
T2 construct: from tissue; host or cells: swine blood
Protocol: as §1
as §2, with “1 […] OF THE PLASMIN SOLUTION THE ACTIVITY OF WHICH IS TO BE DETERMINED AND THE PH of which is 7.5 is added to two test tubes each containing in 0.4 molar phosphate buffer (pH 7.50) 1 milliliter of a 3 per cent's solution of Hammarsten Casein said solution having been preheated to 35.5°C. […] By” for “By”
By way of illustration reference may be made to the following experiments:
a. A plasmin solution from swine blood and containing about 0.4 plasmin unit per milliliter and 2 millimoles of L-lysine per plasmin unit is produced in phosphate buffer (pH 7.5) whereafter the plasmin activity of the mixture is determined and compared with the activity of the plasmin solution without the amino acid addition and the activity of the mixture is expressed in per cent of the activity of the unmixed plasmin solution. Thereafter a dilution of the solution is carried out expressed in the original volume of the plasmin solution divided by the volume of the plasmin solution after the dilution, and the activity of the diluted solutions is determined.

[3] = target: T3, plasmin (Sus scrofa, UniProt P06867); type: biochemical, swine; conditions: for % activity after 120 min. at 25°C / % activity after 60 min. at 25°C: 0.3 plasmin units per ml
Protocol: as §1
as §2, with “1 […] THE PLASMIN SOLUTION THE ACTIVITY OF WHICH IS TO BE […] THE PH of which is 7.5 is added to two test tubes each containing in 0.4 molar phosphate buffer (pH 7.50) 1 […] a 3 per cent's solution of Hammarsten Casein said solution having been preheated to 35.5°C. […] By” for “By”
The stabilizing effect of a long series of amino acids has been examined in connection with plasmin originating from swine blood and dissolved in phosphate buffer (pH 7.5). […] If not, a saturated amino acid solution is employed.

[4] = target: T3, plasmin; assay: Initial loss of plasmin on adjusting concentrated acidified solution to pH 7.5; type: biochemical; conditions: 10 plasmin units per ml adjusted to pH 7.5 at 25°C
Text: In the tests referred to above use has been made of plasmin solutions having a plasmin content of 0.3 and 0.4 units, respectively, per milliliter. When using more concentrated solutions, e.g. containing 10 plasmin units per milliliter, an appreciable initial loss of plasmin will occur immediately by the adjustment of the pH-value from 2-3 up to neutral reaction unless amino acids are present in sufficient amounts. Thus, in the course of a few minutes an initial loss of 20 per cent may e.g. arise when an acidified plasmin solution containing 10 plasmin units per milliliter is adjusted to pH 7.5 at 25°C even if lysine is present in the solution in an amount of 0.002 millimole per plasmin unit. Such initial loss can, however, be avoided by increasing the amino acid concentration.

[5] = tested on: partially purified plasmin from human plasma; conditions: cited from earlier work; for effect on autolysis of plasmin: neutral solutions, 37°C
[6] = target: plasmin (Homo sapiens, UniProt P00747); conditions: plasmin about 0.047 to about 0.229 units per ml; cited from earlier work
[7] = Solubility of plasmin in neutral aqueous solution; type: physicochemical; conditions: no amino acid
Text: While a neutral solution of plasmin in water becomes turbid due to a precipitation of plasmin when the plasmin concentration is 0.01 unit and more per milliliter, it is possible by the addition of an amino acid to produce clear neutral plasmin solutions having a plasmin concentration up to 25 units per milliliter.

[8] = Stability of plasmin solutions without amino acid
Text: Further, it is possible to produce a sterile plasmin solution which is adjusted to pH 1 to 4. […] By mixing such solution before use with a sterile amino acid solution which has either been buffered with one of the normal acid-base-buffer systems or has a sufficient amino acid content, it is possible to obtain a neutral stable plasmin solution.

[9] = pH 7.5, read-out: Activity expressed in per cent of the total activity
[10] = 0.010 millimole L-lysine per plasmin unit
[11] = 0.021 millimole L-lysine per plasmin unit
[12] = 0.042 millimole L-lysine per plasmin unit

T3 sequence (P06867 97-579 limits assumed): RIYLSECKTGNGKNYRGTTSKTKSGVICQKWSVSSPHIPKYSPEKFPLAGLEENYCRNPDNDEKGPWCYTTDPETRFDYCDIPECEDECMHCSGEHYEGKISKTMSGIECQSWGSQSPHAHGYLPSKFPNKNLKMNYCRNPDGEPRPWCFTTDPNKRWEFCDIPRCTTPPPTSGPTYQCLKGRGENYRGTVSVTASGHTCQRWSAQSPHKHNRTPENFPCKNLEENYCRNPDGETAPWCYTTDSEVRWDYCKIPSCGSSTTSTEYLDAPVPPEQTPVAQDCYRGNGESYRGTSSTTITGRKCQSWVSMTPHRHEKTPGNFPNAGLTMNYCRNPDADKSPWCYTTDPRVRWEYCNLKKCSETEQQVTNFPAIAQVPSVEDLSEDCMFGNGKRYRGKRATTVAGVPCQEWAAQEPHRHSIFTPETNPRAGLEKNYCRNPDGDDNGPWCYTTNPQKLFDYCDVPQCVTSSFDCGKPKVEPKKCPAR
T3 sequence (P06867 580-809 limits assumed): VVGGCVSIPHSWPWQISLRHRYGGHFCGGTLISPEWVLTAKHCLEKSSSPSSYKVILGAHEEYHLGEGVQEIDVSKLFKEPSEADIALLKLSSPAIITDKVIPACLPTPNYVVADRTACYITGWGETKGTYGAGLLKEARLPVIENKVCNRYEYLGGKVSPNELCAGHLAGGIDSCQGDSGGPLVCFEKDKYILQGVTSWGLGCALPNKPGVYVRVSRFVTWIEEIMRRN
T1 sequence (P06867 97-579 limits assumed): as the sequence (P06867 97-579 limits assumed) above
T1 sequence (P06867 580-809 limits assumed): as the sequence (P06867 580-809 limits assumed) above
T2 sequence (P06867 97-579 limits assumed): as the sequence (P06867 97-579 limits assumed) above
T2 sequence (P06867 580-809 limits assumed): as the sequence (P06867 580-809 limits assumed) above

NCC(=O)O [Glycine]
stabilizing effect (in words) [1]: rather insignificant; also recorded: faintly stabilizing effect

NCCCC[C@H](N)C(=O)O [L-lysine]
stabilizing effect (in words) [1]: strongly stabilizing effect | stabilizing effect (in words) ([1]; listed as lysine): most vigorous stabilizing effect | reversibility of the inactivation by dilution ([2]; Table IV): reversible | activity at 160000 µM [2, 9]: 97% | activity at 320000 µM [2, 9]: 100% | activity at 480000 µM [2, 9]: 92% | activity at 640000 µM [2, 9]: 84% | activity at 800000 µM [2, 9]: 88% | lysine concentration above which it has an inactivating effect on the plasmin solution ([2]; plasmin concentration 1/2 unit per millimole lysine): above 0.32 millimole per ml | % activity after 120 min. at 25°C ([3]; 0.005 millimole L-lysine per plasmin unit, without lysine 70): 78% | % activity after 60 min. at 25°C ([3]; 0.005 millimole L-lysine per plasmin unit, without lysine 77): 88% | % activity after 60 min. at 25°C [3, 10]: 91% | % activity after 120 min. at 25°C [3, 10]: 84% | % activity after 60 min. at 25°C [3, 11]: 99% | % activity after 120 min. at 25°C [3, 11]: 91% | % activity after 60 min. at 25°C [3, 12]: 100% | % activity after 120 min. at 25°C [3, 12]: 99% | lysine concentration necessary to avoid a plasmin loss by standing for two hours ([3]; 25°C): 0.04 millimole per plasmin unit | lysine concentration sufficient to allow only a plasmin loss of about 20 per cent by standing for 2 hours ([3]; 25°C): about 0.005 millimole per plasmin unit | lysine concentration necessary to allow only a plasmin loss of about 20 per cent by standing for 2 hours ([3]; 35.5°C): about 0.1 millimole per plasmin unit | lysine concentration necessary to avoid a plasmin loss by standing for two hours ([3]; 35.5°C, plasmin concentration of 0.4 plasmin units per ml): above 0.25 millimole per plasmin unit | initial loss of plasmin in the course of a few minutes ([4]; lysine 0.002 millimole per plasmin unit): 20 per cent | initial loss of plasmin ([4]; lysine 0.04 millimole per plasmin unit): avoid completely an initial loss

O=C(O)[C@@H]1C[C@@H](O)CN1 [L(-)-hydroxyproline]
stabilizing effect (in words) [1]: limited stabilizing effect

N=C(N)NCC(=O)O [Guanidino acetic acid]
stabilizing effect (in words) [1]: considerably better than that of glycine and DL-valine

N[C@@H](CC(=O)O)C(=O)O [L(+)-aspartic acid]
stabilizing effect (in words) [1]: almost identical with that of glycine

O=C(O)[C@@H]1CCCN1 [L(-)-proline]
stabilizing effect (in words) [1]: limited stabilizing effect

CC(=O)N[C@@H](CCCNC(=N)N)C(=O)O [α-N-acetyl-L-arginine]
stabilizing effect (in words) [1]: excellent stabilizing effect

CN(CC(=O)O)C(=N)N [Creatine]
stabilizing effect (in words) [1]: considerably better than that of glycine and DL-valine

NC(N)=O [urea]
effect on autolysis of plasmin [5]: may inhibit this autolysis

CN [methylamine]
effect on autolysis of plasmin [5]: may inhibit this autolysis

CSCCC(N)C(=O)O (racemic) [DL-methionine]
stabilizing effect (in words) [1]: possible to obtain a stabilizing effect

NCCCCCC(=O)O [ε-amino caproic acid]
stabilizing effect (in words) [1]: stabilize considerably better than β-alanine | stabilizing effect (in words) ([1]; listed as ε-amino caproic acids): strongly stabilizing effect | activity at 800000 µM ([2]; Undiluted, 0.8 millimole amino acid per ml, 2 millimoles per plasmin unit, about 0.4 unit per ml, pH 7.5, read-out: Activity expressed in per cent of the total activity): 57% | activity at 160000 µM ([2]; pH 7.5, Dilution 1:5, 0.16 millimole amino acid per ml, read-out: Activity expressed in per cent of the total activity): 93% | activity at 320000 µM ([2]; pH 7.5, Dilution 2:5, 0.32 millimole amino acid per ml, read-out: Activity expressed in per cent of the total activity): 84% | activity at 480000 µM ([2]; pH 7.5, Dilution 3:5, 0.48 millimole amino acid per ml, read-out: Activity expressed in per cent of the total activity): 71% | activity at 640000 µM ([2]; pH 7.5, Dilution 4:5, 0.64 millimole amino acid per ml, read-out: Activity expressed in per cent of the total activity): 65% | concentration at which it acts as an inhibitor of the action of plasmin [6]: above 0.03 M | concentration at which it exhibits an enhancing effect on the action of plasmin [6]: up to 0.02 M

NCC(=O)NCC(=O)O [Glycyl glycine] (H-Gly-Gly-OH)
stabilizing effect (in words) [1]: strongly stabilizing effect

NCCCC(=O)O [γ-amino butyric acid]
stabilizing effect (in words) [1]: stabilize considerably better than β-alanine

B1: plasmin: proteolytic enzyme plasmin in aqueous solution without amino acid addition (protein, UniProt P00747 20-580; P00747 581-810, looked up)
Plasmin heavy chain A: EPLDDYVNTQGASLFSVTKKQLGAGSIEECAAKCEEDEEFTCRAFQYHSKEQQCVIMAENRKSSIIIRMRDVVLFEKKVYLSECKTGNGKNYRGTMSKTKNGITCQKWSSTSPHRPRFSPATHPSEGLEENYCRNPDNDPQGPWCYTTDPEKRYDYCDILECEEECMHCSGENYDGKISKTMSGLECQAWDSQSPHAHGYIPSKFPNKNLKKNYCRNPDRELRPWCFTTDPNKRWELCDIPRCTTPPPSSGPTYQCLKGTGENYRGNVAVTVSGHTCQHWSAQTPHTHNRTPENFPCKNLDENYCRNPDGKRAPWCHTTNSQVRWEYCKIPSCDSSPVSTEQLAPTAPPELTPVVQDCYHGDGQSYRGTSSTTTTGKKCQSWSSMTPHRHQKTPENYPNAGLTMNYCRNPDADKGPWCFTTDPSVRWEYCNLKKCSGTEASVVAPPPVVLLPDVETPSEEDCMFGNGKGYRGKRATTVTGTPCQDWAAQEPHRHSIFTPETNPRAGLEKNYCRNPDGDVGGPWCYTTNPRKLYDYCDVPQCAAPSFDCGKPQVEPKKCPGR
Plasmin light chain B: VVGGCVAHPHSWPWQVSLRTRFGMHFCGGTLISPEWVLTAAHCLEKSPRPSSYKVILGAHQEVNLEPHVQEIEVSRLFLEPTRKDIALLKLSSPAVITDKVIPACLPSPNYVVADRTECFITGWGETQGTFGAGLLKEAQLPVIENKVCNRYEFLNGRVQSTELCAGHLAGGTDSCQGDSGGPLVCFEKDKYILQGVTSWGLGCARPNKPGVYVRVSRFVTWIEGVMRNN
modifications: Plasmin
notes: proteolytic enzyme plasmin in aqueous solution without amino acid addition
plasmin concentration at which a neutral solution in water becomes turbid due to precipitation of plasmin [7]: ≥ 0.01 unit per milliliter | stability in neutral solutions ([5]; rapid loss of proteolytic activity at 37°C): unstable | plasmin concentration above which neutral solutions must be considered unstable ([8]; criterion: highest permissible loss 20 per cent in 2 hours at 25°C): more than 0.1 unit per milliliter | stability of acid sterile plasmin solution ([8]; pH 1 to 4, stored at 4°-5°C): stable for several months | stability of aqueous plasmin solution ([8]; pH-value of 2 to 3, temperatures up to 35°C): practically completely stable
